The record followed here is patent US11753374B2, “Compounds for the treatment of acute and chronic kidney disease” (Southern Research Institute, priority 2020, dated 2023).

Where only a bound is given, the exact number is not on record here.

The assay relates to heme oxygenase-1 (HO-1). Briefly: High throughput screen: HO-1 promoter/enhancer luciferase reporter (pHOGL3/4.5+220) in stable HEK293 cells. Format: cell-based. As to conditions: Homo sapiens; for EC50: Table 1, evaluation of biaryl aminomaleimides, HO-1 induction; for Emax: Table 1, unit inferred, Emax as % of 5 μM hemin. The method, then: The generation of the pHOGL3/4.5+220 construct is described in Deshane, et al. (2010) “SpI regulates chromatin looping between an intronic enhancer and distal promoter of the human heme oxygenase-1 gene in renal cells” J Biol Chem 285(22): 16476-86. See also FIG. 1.
Briefly, BamHI sites were added to the 4.5-kb PCR product generated by long-range PCR from a bacterial artificial chromosome clone containing portions of chromosome 22 (accession no. Z82244), including the HO-1 gene. This fragment was cloned into the BglII restriction site of the multiple cloning region to make the parental clone (pHOGL3/4.5). The 220-bp intronic enhancer was amplified with SalI sites on either end and cloned into the SalI site of the vector to generate pHOGL3/4.5+220.
In order to generate cells that stably express luciferase expression vectors that lack a mammalian antibiotic selection cassette, HEK293 cells were co-transfected with either pHOGL3/4.5+220 (Deshane et al, 2010) or the Triple Mutant construct (Liby, Hock et al, 2005; Hock et al, 2007) and pcDNA3.1 Zeocin using Lipofectamine 2000. Cells were cultured in Zeocin (400 ug/ml; Invitrogen) for selection. Individual clones were sorted by flow cytometry and plated into a 96-well plate at a density of one cell per well. Clones were maintained and expanded in complete media (DMEM/10% FBS/1× antibiotic-antimycotic) supplemented with 100 ug/ml Zeocin, and incubated at 37° C. in 5% carbon dioxide. Incorporation of the Luciferase expression vectors was validated by assaying for luciferase.
A library of over 150,000 compounds, as well as a library of over 4,000 FDA approved compounds, were used in the HTS assay. […] This led to the identification of approximately 800 compounds that induce HO-1 and have desirable chemical structures. […] The In-Cell Western assay was optimized to screen for endogenous HO-1 in a high throughput platform, and results were validated by Western blot, real-time PCR, and enzyme activity assays. Additional RNA sequencing studies highlighted a role for the transcription factor Nrf2 and other targets in HO-1 induction by several small molecules.
In general terms: A reporter such as luciferase makes a cellular process visible.

Consider `CN(C)c1ccc(N2C(=O)C=C(Nc3cc(F)c(O)c(F)c3)C2=O)cc1` [Compound 53], for which the EC50 turned out to be 3.35 µM and the Emax amounted to 94.1%.
Take `COc1cc(N2C(=O)C=C(Nc3cc(F)c(O)c(F)c3)C2=O)ccc1F` [Compound 52]: the EC50 turned out to be 14 µM and the Emax came to 53.1%.
`O=C1C=C(Nc2cc(F)c(O)c(F)c2)C(=O)N1c1ccc2c(c1)OCO2` [Compound 32]: the EC50 stood at 12.9 µM and the Emax turned out to be 38.1%.
On to `COC(=O)c1cccc(N2C(=O)C=C(Nc3cc(F)c(O)c(F)c3)C2=O)c1` [Compound 65], for which the EC50 was 15.6 µM and the Emax came out at 42.8%.
For `Nc1ccc(NC2=CC(=O)N(c3ccccc3)C2=O)cc1` [Compound 25], the EC50 was greater than 50 µM.
Turning to `COc1c(F)cc(N2C(=O)C=C(Nc3cc(F)c(O)c(F)c3)C2=O)cc1F` [Compound 49], the concentration for a half-maximal effect (EC50) was 8.37 µM and the Emax stood at 69.6%.
For `N#Cc1cccc(N2C(=O)C=C(Nc3cc(F)c(O)c(F)c3)C2=O)c1` [Compound 66], the EC50 is greater than 50 µM.
For the molecule `O=C1C=C(Nc2ccc(O)cc2)C(=O)N1c1cc(F)c(O)c(F)c1` [Compound 69], the EC50 amounted to 16.7 µM and the maximum response (Emax) stood at 105%.
For the molecule `O=C1C=C(Nc2c(F)cc(O)cc2F)C(=O)N1c1ccccc1` [Compound 10], the EC50 is greater than 50 µM.
Consider `O=C1C=C(Nc2ccc(O)c(F)c2F)C(=O)N1c1ccccc1` [Compound 8], for which the EC50 was 5.49 µM and the Emax came to 41.7%.
`O=C1C=C(Nc2cc(F)c(O)c(F)c2)C(=O)N1C1CC1` [Compound 68]: the concentration giving a half-maximal response (EC50) is greater than 50 µM.
For `O=C1C=C(Nc2cc(F)c(O)c(F)c2)C(=O)N1c1ccc(OC(F)(F)F)cc1` [Compound 31], the EC50 was 2.31 µM and the Emax is 64%.
Turning to `COC(=O)c1ccc(N2C(=O)C=C(Nc3cc(F)c(O)c(F)c3)C2=O)cc1` [Compound 44], the EC50 is 19.1 µM and the Emax was determined as 99.6%.
Turning to `Cc1ccc(N2C(=O)C=C(Nc3cc(F)c(O)c(F)c3)C2=O)cc1` [Compound 35], the concentration giving a half-maximal response (EC50) came to 2.1 µM and the Emax turned out to be 96.8%.
`COc1ccccc1N1C(=O)C=C(Nc2cc(F)c(O)c(F)c2)C1=O` [Compound 54]: the EC50 was determined as 20 µM and the Emax was 54.9%.
`O=C1C=C(Nc2cc(F)c(O)c(F)c2)C(=O)N1c1ccc(F)cc1` [Compound 26]: the EC50 was determined as 4.21 µM and the maximum response (Emax) is 80.7%.
`O=C1C=C(Nc2cc(F)c(O)c(F)c2)C(=O)N1c1ccc(-c2ccccc2)cc1` [Compound 62]: the EC50 was found to be 2.75 µM and the Emax stood at 34.6%.
Take `COc1c(F)cc(NC2=CC(=O)N(c3ccccc3)C2=O)cc1F` [Compound 23]: the EC50 was greater than 50 µM.
On to `O=C1C=C(Nc2cc(F)c(O)c(F)c2)C(=O)N1c1ccc(Cl)cc1` [Compound 29], for which the EC50 came out at 3.34 µM and the Emax is 110%.
For the molecule `O=C1C=C(Nc2cc(O)c(Cl)cc2F)C(=O)N1c1ccccc1` [Compound 19], the EC50 was greater than 50 µM.
For the molecule `O=C1C=C(Nc2cc(F)c(O)c(F)c2)C(=O)N1c1ccccc1F` [Compound 48], the EC50 came out at 13.7 µM and the Emax was 82.9%.
On to `O=C1C=C(Nc2cc(F)c(O)c(F)c2)C(=O)N1c1ccc(Oc2ccccc2)cc1` [Compound 61], for which the EC50 was 3.77 µM and the Emax was found to be 33.4%.
Consider `O=C(O)c1ccc(NC2=CC(=O)N(c3ccccc3)C2=O)cc1` [Compound 24], for which the EC50 was greater than 50 µM.
Take `O=C1C=C(Nc2cc(F)c(O)c(F)c2)C(=O)N1c1ccc(-c2cscn2)cc1` [Compound 59]: the EC50 was 9.22 µM and the maximal response (Emax) was 43.9%.
`O=C1C=C(Nc2cc(O)c(F)cc2F)C(=O)N1c1ccccc1` [Compound 18]: the EC50 was greater than 50 µM.
Take `O=C1C=C(Nc2cc(F)c(O)c(F)c2)C(=O)N1c1cccc(C(F)(F)F)c1` [Compound 64]: the EC50 is 3.33 µM and the Emax turned out to be 23.9%.
With `O=C1C=C(Nc2cc(Cl)c(Cl)cc2O)C(=O)N1c1ccccc1` [Compound 16], the EC50 was greater than 50 µM.
Turning to `Cc1ccc(N2C(=O)C=C(Nc3cc(F)c(O)c(F)c3)C2=O)cc1C` [Compound 37], the EC50 worked out at 1.56 µM and the Emax stood at 57.2%.
Turning to `O=C1C=C(Nc2cc(F)c(O)c(F)c2)C(=O)N1c1ccc(N2CCCCC2)cc1` [Compound 41], the EC50 came out at 11.5 µM and the maximum response (Emax) was 70.4%.
With `O=C1C=C(Nc2cc(F)cc(F)c2O)C(=O)N1c1ccccc1` [Compound 15], the concentration giving a half-maximal response (EC50) was greater than 50 µM.
For `O=C1C=C(Nc2ccc(O)c(C(F)(F)F)c2)C(=O)N1c1ccccc1` [Compound 11], the EC50 is greater than 50 µM.
For the molecule `N#Cc1ccc(N2C(=O)C=C(Nc3cc(F)c(O)c(F)c3)C2=O)cc1` [Compound 40], the concentration for a half-maximal effect (EC50) was greater than 50 µM.
As for `O=C1C=C(Nc2cc(F)c(O)c(F)c2)C(=O)N1Cc1ccccc1` [Compound 43], the EC50 came out at 1.03 µM and the Emax stood at 67.5%.
As for `O=C1C=C(Nc2ccc(O)cc2Cl)C(=O)N1c1ccccc1` [Compound 6], the concentration giving a half-maximal response (EC50) is 1.74 µM and the maximal effect (Emax) was found to be 20.4%.
In the case of `COc1ccc(N2C(=O)C=C(Nc3cc(F)c(O)c(F)c3)C2=O)cc1F` [Compound 57], the EC50 was 5.67 µM and the Emax was 98.7%.
Turning to `O=C1C=C(Nc2cc(F)c(O)c(F)c2)C(=O)N1c1cccc2ccccc12` [Compound 45], the 50% effective concentration (EC50) was found to be 36.1 µM and the Emax was found to be 141%.
In the case of `Cc1cc(NC2=CC(=O)N(c3ccccc3)C2=O)cc(C)c1O` [Compound 12], the EC50 amounted to 7.55 µM and the maximum response (Emax) came out at 39.3%.
The corresponding values for `O=C1C=C(Nc2cc(F)c(O)cc2F)C(=O)N1c1ccccc1` [Compound 14] are 2.97 µM and 49.1%.
The corresponding values for `Cc1ccc(N2C(=O)C=C(Nc3cc(F)c(O)c(F)c3)C2=O)c(C)c1` [Compound 38] are 2.29 µM and 57%.
`O=C1C=C(Nc2cc(F)c(O)c(F)c2)C(=O)N1c1ccccc1` [Compound 1, 3-(3,5-difluoro-4-hydroxy-anilino)-1-phenyl-pyrrole-2,5-dione]: the concentration giving a half-maximal response (EC50) stood at 3.08 µM and the Emax amounted to 90.6%.
For the molecule `O=C1C=C(N2CCN(c3ccc(O)cc3)CC2)C(=O)N1c1ccccc1` [Compound 22], the EC50 is greater than 50 µM.
With `O=C1C=C(Nc2cc(F)c(F)c(F)c2)C(=O)N1c1ccccc1` [Compound 21], the EC50 is greater than 50 µM.
Take `O=C1C=C(Nc2ccccc2)C(=O)N1c1cc(F)c(O)c(F)c1` [Compound 70]: the EC50 was greater than 50 µM.
Regarding `O=C1C=C(Nc2cc(F)c(O)c(F)c2)C(=O)N1c1cc(F)c(F)c(F)c1` [Compound 28], the EC50 turned out to be 16.9 µM and the Emax is 31.3%.
The corresponding values for `CC(C)(C)c1ccc(N2C(=O)C=C(Nc3cc(F)c(O)c(F)c3)C2=O)cc1` [Compound 58] are 1.73 µM and 53.3%.
As to `O=C1C=C(Nc2cc(F)c(O)c(F)c2)C(=O)N1c1ccc(O)cc1` [Compound 50], the EC50 is 15.3 µM and the Emax came to 75.2%.
Consider `O=C1C=C(Nc2cc(O)c(Cl)cc2Cl)C(=O)N1c1ccccc1` [Compound 20], for which the EC50 is greater than 50 µM.
As to `O=C1C=C(Nc2cc(F)c(O)c(F)c2)C(=O)N1c1ccc(-c2ncco2)cc1` [Compound 42], the EC50 is greater than 50 µM.

Usually EC50 stands for the concentration at which the effect is half-maximal. Broadly, the Emax is the greatest response seen or fitted, relative to the assay's reference.
